Values joined by “and” are separate entries in the source; they are usually repeats but may differ in a detail not shown here. Equal values may be shown once. Where a name gives a salt, the structure may show the parent alone.
Tests used:
mTOR = biological target: T1, mTOR (Homo sapiens, UniProt P42345); assay: mTOR biochemical assay (LanthaScreen TR-FRET); details: ATP 3 μM, maximal concentration 100 nM
T1 construct: purchased ThermoFisher PR8683B
Procedure: mTOR Kinase reactions were performed in a 10 μL volume in low-volume 384-well plates. Typically, PerkinElmer model 6008260 plates were used. The composition of the 1× kinase reaction buffer was: 50 mM HEPES pH 7.5, 0.01% Tween 20, 1 mM EGTA, 10 mM MnCl2, and 2 mM DTT. The solution of mTOR enzyme (ThermoFisher, #PR8683B; the final mTOR concentration: 0.5 μg/mL) was added, and the compounds were serially diluted to the final maximal concentration of 100 nM (3 fold series dilution, a total of 10 doses). GFP-4E-BP1 (the final concentration: 0.4 μM) and the ATP solution (the final ATP concentration: 3 μM) were added to the 384-well plate. The plate was incubated at 25° C. for 1 hour, and 10 μL of the EDTA solution (20 mM) and Tb-labeled anti-p4E-BP1 antibody (4 nM) in TR-FRET dilution buffer were added to each well. The plate was sealed, incubated 30 min at 25° C., and read on a plate reader configured for LanthaScreen™ TRFRET.

ATM = biological target: T2, ATM (Homo sapiens, UniProt Q13315); assay: ATM in Cell Western assay (pKAP1, etoposide-treated MCF-7 cells); type: cell-based; details: etoposide 100 μM, 1 h, pKAP1 readout
T2 construct: endogenous in cells; host or cells: MCF-7
Procedure: ATM in Cell Western Assay:
In the morning, MCF-7 breast cancer cells were placed in a 384 well plate at the density of 10,000 cells/well (Corning, #356663), 25 μL cells per well. The following day, compounds were added to the plate using a pin tool (Echo 550) to a final concentration of 1 μM through a 3-fold serial dilution (a total of 10 doses). Then, etoposide (Sigma, #E1383) was added to a final concentration of 100 μM. The plate was incubated at 37° C. for 1 h, and the cells were fixed by the addition of 25 μL of fixing solution (8% paraformaldehyde) for 20 minutes at ambient temperature. Cells were permeabilized by 5 washes with 1×PBS (phosphate buffered saline) containing 0.1% Triton X-100; each wash was 5 minutes long. Cells were blocked by adding 50 μL of Odyssey Blocking Buffer (LI-COR, #927-40000) in 384 well plates for 1.5 hours with shaking at ambient temperature. Blocking buffer was then removed, and 20 μL of anti-pKAP1 antibody (Bethyl Laboratories, #A300-767A) (1/2000) solution were added to each well of 384-well plate. The plate was incubated overnight at 4° C. and then washed 5 times with 1×PBST (1×PBS containing 0.1% Tween-20). A secondary antibody (IRDye 800CW Goat anti-Rabbit IgG, LI-COR, #926-32211) (1/5,000) solution containing DNA stain DRAQ5 (CST, #4084L) (1/5,000) (20 μL) was added to each well in the plate, and the plate was incubated 1 hour with gentle shaking in the dark. Cells were washed 5 times with 1×PBST (1×PBS containing 0.1% Tween-20) at ambient temperature with gentle shaking in the dark. After the last wash, the wash solution was removed, the plate was inverted upside down onto a thin paper towel and centrifuged at 1000 rpm for 1 min to absorb all wash buffer. The bottom of the plate was cleaned with a moist, lint-free paper. The plate was immediately scanned using ODYSSEY CLx (LI-COR).

DNA-PK = biological target: T3, DNA-PK (Homo sapiens, UniProt P78527); assay: DNA-PK enzyme-linked immunosorbent assay; type: biochemical; details: ATP 20 μM, GST-p53 substrate
T3 construct: purchased Invitrogen PR9107A
Procedure: DNA-PK Enzyme-Linked Immunosorbent Assay:
On day one, a 96-well plate (ThermoFisher, Cat #: 442404) was coated with GST-p53 (1-101) peptide (purified by Pharmaron, BCS department) by diluting 3 μg of GST-p53 in each well with 0.1 M Na2CO3/NaHCO3 (pH 9.6). The plate was incubated overnight at 4° C. On the second day, the coating buffer was removed, and the plate was washed twice with PBST (1×PBS containing 0.1% Tween-20). The DNA-PK enzyme solution (Invitrogen, #PR9107A; the final DNA-PK concentration: 0.1 μg/mL) was then added. The compounds were serially diluted to the final maximal concentration of 100 nM (3 fold series dilution, a total of 10 doses), and an ATP solution (the final ATP concentration: 20 μM) was added to the plate. Incubate the plate at 25° C. for 1 hour. The plate was washed three times with PBST (1×PBS containing 0.1% Tween-20) and blocked with a solution of PBST and 1% BSA at 4° C. overnight. The third day, the plate was washed four times with PBST (1×PBS containing 0.1% Tween-20). Anti-phospho-p53 primary antibody (cell signaling Technology, #9286, Phospho-p53 (Ser15) (16G8) Mouse mAb) (1/1000) was added to each well. The plate was sealed, incubated 1 h at 37° C., and washed four times with PBST (1×PBS containing 0.1% Tween-20). An HRP-linked secondary antibody (Cell signaling Technology, #7076, Anti-mouse IgG, HRP-linked Antibody) (1/1000) (100 μL) was added to each well. The plate was sealed with tape, incubated 30 min at 37° C., and washed four times with PBST (1×PBS containing 0.1% Tween-20). At this time, 100 μL of TMB (Cell signaling Technology, #7004) substrate were added to each well. The plate was sealed with tape and incubated the plate 10 min at 37° C. Stop solution (Cell signaling Technology, #7002) (100 μL) was added to each well, and the plate was subjected to the absorption detection at 450 nm.

PI3Kα = biological target: T4, PI3Kα (Homo sapiens, UniProt P42336); assay: PI3Kα biochemical assay (ADP-Glo); details: first value of PI3K-α/δ cell; ATP 10 μM
T4 construct: purchased ThermoFisher PV4788
T4 sequence (P42336 whole entry): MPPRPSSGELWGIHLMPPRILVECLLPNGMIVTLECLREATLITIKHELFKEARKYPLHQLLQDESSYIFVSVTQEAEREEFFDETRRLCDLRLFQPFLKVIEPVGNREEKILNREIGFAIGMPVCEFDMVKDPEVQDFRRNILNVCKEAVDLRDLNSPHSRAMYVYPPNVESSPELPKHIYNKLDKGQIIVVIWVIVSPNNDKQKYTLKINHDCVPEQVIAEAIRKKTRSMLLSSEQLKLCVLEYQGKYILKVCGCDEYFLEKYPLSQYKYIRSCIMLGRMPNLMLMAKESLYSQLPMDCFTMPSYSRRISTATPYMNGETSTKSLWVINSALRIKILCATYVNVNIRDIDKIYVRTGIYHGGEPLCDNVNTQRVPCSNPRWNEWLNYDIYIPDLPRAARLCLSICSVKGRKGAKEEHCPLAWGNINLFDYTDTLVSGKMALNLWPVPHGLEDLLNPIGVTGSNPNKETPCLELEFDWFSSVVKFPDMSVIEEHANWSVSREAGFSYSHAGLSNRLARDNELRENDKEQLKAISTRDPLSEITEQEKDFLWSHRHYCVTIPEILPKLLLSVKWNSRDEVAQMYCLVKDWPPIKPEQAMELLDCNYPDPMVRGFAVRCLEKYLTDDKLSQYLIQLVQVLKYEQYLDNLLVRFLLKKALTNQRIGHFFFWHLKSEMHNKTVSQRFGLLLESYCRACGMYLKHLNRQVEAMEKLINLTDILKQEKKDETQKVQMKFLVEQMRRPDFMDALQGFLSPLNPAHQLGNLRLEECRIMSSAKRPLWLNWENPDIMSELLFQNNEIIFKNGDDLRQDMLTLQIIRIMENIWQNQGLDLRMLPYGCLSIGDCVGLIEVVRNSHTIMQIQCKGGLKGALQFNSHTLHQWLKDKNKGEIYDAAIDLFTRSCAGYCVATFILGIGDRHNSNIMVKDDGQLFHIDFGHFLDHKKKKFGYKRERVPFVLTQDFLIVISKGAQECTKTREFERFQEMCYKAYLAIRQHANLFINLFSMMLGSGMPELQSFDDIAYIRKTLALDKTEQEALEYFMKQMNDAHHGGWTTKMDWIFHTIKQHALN
T4 sequence (P27986 whole entry partner): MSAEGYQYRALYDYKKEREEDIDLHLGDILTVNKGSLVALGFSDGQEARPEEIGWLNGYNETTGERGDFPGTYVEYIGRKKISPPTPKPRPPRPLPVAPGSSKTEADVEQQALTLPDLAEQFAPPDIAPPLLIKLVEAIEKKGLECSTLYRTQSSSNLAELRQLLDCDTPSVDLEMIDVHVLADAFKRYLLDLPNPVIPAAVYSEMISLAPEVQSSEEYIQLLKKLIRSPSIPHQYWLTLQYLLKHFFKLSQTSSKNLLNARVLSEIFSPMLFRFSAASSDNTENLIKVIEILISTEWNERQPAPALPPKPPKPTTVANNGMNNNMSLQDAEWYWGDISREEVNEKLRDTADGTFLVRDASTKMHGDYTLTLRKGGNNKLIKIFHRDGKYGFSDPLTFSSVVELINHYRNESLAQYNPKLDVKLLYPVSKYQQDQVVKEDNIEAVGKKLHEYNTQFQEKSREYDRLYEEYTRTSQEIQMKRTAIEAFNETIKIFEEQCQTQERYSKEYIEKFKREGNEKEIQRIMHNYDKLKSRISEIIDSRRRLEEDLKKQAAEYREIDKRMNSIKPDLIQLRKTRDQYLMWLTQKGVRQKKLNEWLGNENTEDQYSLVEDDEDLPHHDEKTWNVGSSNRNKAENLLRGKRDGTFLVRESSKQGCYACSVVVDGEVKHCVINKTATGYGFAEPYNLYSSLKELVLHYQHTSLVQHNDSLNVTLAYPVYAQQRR
Procedure: PI3Kα and PI3Kδ Biochemical Assay:
PI3K[…] and PI3K[…] Kinase reactions were performed in a 5 μL volume in low-volume 384-well plates. Typically, PerkinElmer model 6008280 plates were used. The 1× kinase reaction buffer consisted of 50 mM HEPES pH 7.5, 3 mM MgCl2, 0.03% CHAPS, 1 mM EGTA, 100 mM NaCl, and 2 mM DTT. PI3K[…] (ThermoFisher, #PV4788; the final PI3K[…] concentration: 120 ng/mL) or PI3K[…] enzyme solution (ThermoFisher, #PV6451; the final PI3K[…] concentration: 250 ng/mL) was added to the plate, compounds were serially diluted to the final maximal concentration of 100 nM (3 fold series dilution, a total of 10 doses), and the PIP2:3PS (the final concentration: 10 µg/mL) and ATP solution (the final ATP concentration: 10 μM) was added to the 384-well plate. The plate was incubated at 25° C. for 1 hour. ADP-Glo reagent buffer (5 μL) was added to each well. The plate was sealed and incubated for 40 min at 25° C. ADP-Glo detection buffer (10 μL) was added to each well, and the plate was incubated for 40 min at 25° C. and read on a plate reader configured for Luminescence.

T1 sequence (P42345 1360-2549 limits assumed): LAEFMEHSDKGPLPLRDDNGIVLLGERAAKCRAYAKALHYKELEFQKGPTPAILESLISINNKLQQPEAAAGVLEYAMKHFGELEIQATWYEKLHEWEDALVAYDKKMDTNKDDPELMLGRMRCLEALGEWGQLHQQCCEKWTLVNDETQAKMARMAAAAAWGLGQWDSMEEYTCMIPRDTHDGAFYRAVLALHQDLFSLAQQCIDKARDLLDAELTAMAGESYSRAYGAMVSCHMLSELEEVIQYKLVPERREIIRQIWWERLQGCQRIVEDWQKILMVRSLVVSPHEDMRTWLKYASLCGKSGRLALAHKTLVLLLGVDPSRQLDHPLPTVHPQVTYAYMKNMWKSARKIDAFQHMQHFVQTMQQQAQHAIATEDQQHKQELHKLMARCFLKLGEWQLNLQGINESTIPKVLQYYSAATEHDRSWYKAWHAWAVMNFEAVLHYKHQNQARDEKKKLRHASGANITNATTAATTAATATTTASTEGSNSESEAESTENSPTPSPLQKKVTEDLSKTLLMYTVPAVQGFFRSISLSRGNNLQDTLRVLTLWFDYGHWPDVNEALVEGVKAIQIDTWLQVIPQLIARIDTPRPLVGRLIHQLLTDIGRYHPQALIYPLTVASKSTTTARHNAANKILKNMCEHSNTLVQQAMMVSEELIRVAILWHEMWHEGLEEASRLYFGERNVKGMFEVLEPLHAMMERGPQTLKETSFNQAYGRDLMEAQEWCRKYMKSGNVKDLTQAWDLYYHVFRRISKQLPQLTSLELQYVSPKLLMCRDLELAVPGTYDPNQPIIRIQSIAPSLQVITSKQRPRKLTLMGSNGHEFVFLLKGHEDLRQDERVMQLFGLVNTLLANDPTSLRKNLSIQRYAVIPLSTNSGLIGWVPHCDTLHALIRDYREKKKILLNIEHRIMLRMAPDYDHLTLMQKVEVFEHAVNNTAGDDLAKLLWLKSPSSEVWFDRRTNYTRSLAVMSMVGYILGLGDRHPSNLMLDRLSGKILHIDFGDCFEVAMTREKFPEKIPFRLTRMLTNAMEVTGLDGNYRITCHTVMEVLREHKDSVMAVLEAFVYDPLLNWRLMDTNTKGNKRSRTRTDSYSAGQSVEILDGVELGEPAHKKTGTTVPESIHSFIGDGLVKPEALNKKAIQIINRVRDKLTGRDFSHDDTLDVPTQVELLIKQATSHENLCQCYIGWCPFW

| SMILES | IC50 (mTOR) | IC50 (ATM) | IC50 (DNA-PK) | IC50 (PI3Kα) |
| --- | --- | --- | --- | --- |
| CC(C)NCCOc1ncc(-c2cc3c4c(cnc3cc2F)N(C)C(=O)C42CCC2)cc1NS(C)(=O)=O [Compound 569, N-(5-(7′-Fluoro-3′-methyl-2′-oxo-2′,3′-dihydrospiro[cyclobutane-1,1′-pyrrolo[2,3-c]quinolin]-8′-yl)-2-(2-(isopropylamino)ethoxy)pyridin-3-yl)methanesulfonamide] |  | 2.43 nM | 0.63 nM | 16 nM |
| CC[C@H]1C[C@]2(C1)C(=O)N(C)c1cnc3cc(F)c(-c4cnc(OCCNC(C)C)c(NS(C)(=O)=O)c4)cc3c12 [Compound 573, cis-N-(5-(3-Ethyl-7′-fluoro-3′-methyl-2′-oxo-2′,3′-dihydrospiro[cyclobutane-1,1′-pyrrolo[2,3-c]quinolin]-8′-yl)-2-(2-(isopropylamino)ethoxy)pyridin-3-yl)methanesulfonamide] | > 100 nM | 0.92 nM | 0.3 nM | 18 nM |
| CC(C)NCCOc1ncc(-c2cc3c4c(cnc3cc2F)N(C)C(=O)C42CCC2)cc1NS(=O)(=O)C(C)C [Compound 568, N-(5-(7′-Fluoro-3′-methyl-2′-oxo-2′,3′-dihydrospiro[cyclobutane-1,1′-pyrrolo[2,3-c]quinolin]-8′-yl)-2-(2-(isopropylamino)ethoxy)pyridin-3-yl)propane-2-sulfonamide] | > 100 nM | 2.88 nM | 0.79 nM | 18 nM |
| CN1C(=O)C2(CCC2)c2c1cnc1ccc(-c3cnc(N4CC(N(C)C)C4)c(NS(C)(=O)=O)c3)cc21 [Compound 574, N-(2-(3-(Dimethylamino)azetidin-1-yl)-5-(3′-methyl-2′-oxo-2′,3′-dihydrospiro[cyclobutane-1,1′-pyrrolo[2,3-c]quinolin]-8′-yl)pyridin-3-yl)methanesulfonamide hydrochloride] | 19.9 nM | 1.52 nM | 1.03 nM | 0.12 nM |
| CC[C@H]1C[C@@]2(C1)C(=O)N(C)c1cnc3cc(F)c(-c4cnc(OCCNC(C)C)c(NS(C)(=O)=O)c4)cc3c12 [Compound 566, trans-N-(5-(3-Ethyl-7′-fluoro-3′-methyl-2′-oxo-2′,3′-dihydrospiro[cyclobutane-1,1′-pyrrolo[2,3-c]quinolin]-8′-yl)-2-(2-(isopropylamino)ethoxy)pyridin-3-yl)methanesulfonamide] | > 100 nM | 6.72 nM | 1.03 nM | > 100 nM |
| CC(C)NCCOc1ncc(-c2cc3c(cc2F)ncc2c3[C@]3(C[C@@H](OCc4ccccc4)C3)C(=O)N2C)cc1NS(C)(=O)=O [Compound 567, trans-N-(5-(3-(Benzyloxy)-7′-fluoro-3′-methyl-2′-oxo-2′,3′-dihydrospiro[cyclobutane-1,1′-pyrrolo[2,3-c]quinolin]-8′-yl)-2-(2-(isopropylamino)ethoxy)pyridin-3-yl)methanesulfonamide] | > 100 nM | 11 nM | 2.7 nM | > 100 nM |

Next, values leading:

| IC50 (mTOR) | IC50 (ATM) | IC50 (DNA-PK) | IC50 (PI3Kα) | SMILES |
| --- | --- | --- | --- | --- |
| > 100 nM | 5.76 nM and 5.51 nM | 0.67 nM and 0.94 nM | 62 nM | CC(C)NCCOc1ncc(-c2cc3c4c(cnc3cc2F)N(C)C(=O)C42CN(C(C)C)C2)cc1NS(C)(=O)=O [Compound 571, N-(5-(7′-Fluoro-1-isopropyl-3′-methyl-2′-oxo-2′,3′-dihydrospiro[azetidine-3,1′-pyrrolo[2,3-c]quinolin]-8′-yl)-2-(2-(isopropylamino)ethoxy)pyridin-3-yl)methanesulfonamide] |
| > 100 nM | 3.6 nM | 0.63 nM | 21 nM | CCS(=O)(=O)Nc1cc(-c2cc3c4c(cnc3cc2F)N(C)C(=O)C42CCC2)cnc1OCCNC(C)C [Compound 570, N-(5-(7′-Fluoro-3′-methyl-2′-oxo-2′,3′-dihydrospiro[cyclobutane-1,1′-pyrrolo[2,3-c]quinolin]-8′-yl)-2-(2-(isopropylamino)ethoxy)pyridin-3-yl)ethanesulfonamide] |
| > 100 nM | 1.05 nM | 0.32 nM | 23 nM | CC(C)NCCOc1ncc(-c2cc3c(cc2F)ncc2c3[C@]3(C[C@H](OCc4ccccc4)C3)C(=O)N2C)cc1NS(C)(=O)=O [Compound 572, cis-N-(5-(3-(Benzyloxy)-7′-fluoro-3′-methyl-2′-oxo-2′,3′-dihydrospiro[cyclobutane-1,1′-pyrrolo[2,3-c]quinolin]-8′-yl)-2-(2-(isopropylamino)ethoxy)pyridin-3-yl)methanesulfonamide] |

From patent US20220142995A1, “DUAL ATM AND DNA-PK INHIBITORS FOR USE IN ANTI-TUMOR THERAPY” (XRAD Therapeutics, Inc., priority 2019, published 2022)
